Values of other authors as cited in patent US20100113478A1, “INDOLONE MODULATORS OF 5-HT3 RECEPTOR” (AUSPEX PHARMACEUTICALS, INC., priority 2008, published 2010).

Details: women compared with men

Cc1[nH]cnc1CN1CCc2c(c3ccccc3n2C)C1=O [alosetron, 5-methyl-2-((5-methyl-1H-imidazol-4-yl)methyl)-2,3,4,5-tetrahydro-1H-pyrido[4,3-b]indol-1-one]
alosetron clearance lower in women than in men: 30%
